In data set [1] the target is STAT3 protein (Homo sapiens, UniProt P40763). Kind of data set: Binding activity to STAT3 protein by microscale thermophoresis (MST). The following applies: purified STAT3 recombinant protein. The gist of the method:
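His-tag-labelled purified recombinant STAT3 (final 100–200 nM) was mixed with compounds at 16 concentrations in MST buffer and incubated 30 min protected from light. Thermophoresis read in capillaries gave KD values.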

Data set [2] relates to Capan-2. Kind of data set: Cell proliferation by MTS method, Capan-2. The format is cell-based. The following applies: for IC50: Homo sapiens, Table 1, Capan-2, read-out: Tumour cell proliferative activity/IC50(nM) Pancreatic Cancer Capan-2. The method, boiled down:
(§1)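 MTS viability assay: cells exposed 24-96 h to several concentrations of compound, formazan measured at 490 nm, IC50 calculated from triplicate runs.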
Background: Tetrazolium assays rely on reduction of a dye to a coloured formazan, in cell work by metabolically active cells.

For data set [3], the system named is MKN45. Kind of data set: Cell proliferation by MTS method, MKN45. The format is cell-based. The note with it: Homo sapiens, MKN-45; Table 1, MKN45; read-out: Tumour cell proliferative activity/IC50(nM) gastric Cancer MKN45. The method, boiled down: as §1
The test system of data set [4] is Huh7. The experiment in a line: Cell proliferation by MTS method, Huh7. The class given is cell-based. The note with it: Homo sapiens, Huh-7; Table 1, Huh7; read-out: Tumour cell proliferative activity/IC50(nM) Liver Cancer Huh7. The method, boiled down: as §1
Data set [5] concerns HCC827. Kind of data set: Cell proliferation by MTS method, HCC827. The class given is cell-based. The note with it: Homo sapiens; Table 1, HCC827; read-out: Tumour cell proliferative activity/IC50(nM) Lung Cancer HCC827. The gist of the method:
as §1

The target of data set [6] is STAT3 SH2 domain (Homo sapiens, UniProt P40763). The experiment in a line: Microscale thermophoresis binding to STAT3 SH2 domain. The note with it: MST, FIG. 5A; read-out: affinity for the STAT3 SH2 domain. The text has this:
The microscale thermophoresis (MST) technique is a simple, rapid, and accurate method for quantifying biomolecular interactions. It can measure the movement of molecules in a microscopic temperature gradient field, as well as detect changes of molecular hydration shell, charge and size. When the Nanotemper microscale thermophoresis instrument locally heated by a infrared laser, molecules will move in a directional manner, then the molecular distribution ratio in the temperature gradient field are analyzed by a fluorescence to detect whether a small molecule compound binds to a target protein. The experimental operation is as follows: firstly, compounds to be tested are diluted in a gradient using MST test buffer, total 16 concentrations being configured; subsequently, the purified STAT3 recombinant protein is labeled using the HIS tag labeling kit, and the final concentration of the labeled protein is 100-200 nM; the labeled STAT3 proteins are well mixed with the diluted compounds and incubated and protected from light for 30 minutes; finally the samples were loaded by capillary tube and detected on the instrument. The binding constants (K^D) of small molecules to STAT3 protein were analyzed by Mo. analysis software.
(1) Microscale Thermophoresis Experiment
The method is as described in Example 40.
Background: In MST a laser heats a spot of the sample, and binding alters the fluorescence response.

For data set [7] the following is noted: dose of 25 mg/kg, cited from earlier work.

pIC50, pKd: −log10 of the molar value. Like-named read-outs stand apart in the source and are kept apart here. Where only a bound is given, the exact number is not on record here.

Chain of STAT3 protein (P40763 whole entry): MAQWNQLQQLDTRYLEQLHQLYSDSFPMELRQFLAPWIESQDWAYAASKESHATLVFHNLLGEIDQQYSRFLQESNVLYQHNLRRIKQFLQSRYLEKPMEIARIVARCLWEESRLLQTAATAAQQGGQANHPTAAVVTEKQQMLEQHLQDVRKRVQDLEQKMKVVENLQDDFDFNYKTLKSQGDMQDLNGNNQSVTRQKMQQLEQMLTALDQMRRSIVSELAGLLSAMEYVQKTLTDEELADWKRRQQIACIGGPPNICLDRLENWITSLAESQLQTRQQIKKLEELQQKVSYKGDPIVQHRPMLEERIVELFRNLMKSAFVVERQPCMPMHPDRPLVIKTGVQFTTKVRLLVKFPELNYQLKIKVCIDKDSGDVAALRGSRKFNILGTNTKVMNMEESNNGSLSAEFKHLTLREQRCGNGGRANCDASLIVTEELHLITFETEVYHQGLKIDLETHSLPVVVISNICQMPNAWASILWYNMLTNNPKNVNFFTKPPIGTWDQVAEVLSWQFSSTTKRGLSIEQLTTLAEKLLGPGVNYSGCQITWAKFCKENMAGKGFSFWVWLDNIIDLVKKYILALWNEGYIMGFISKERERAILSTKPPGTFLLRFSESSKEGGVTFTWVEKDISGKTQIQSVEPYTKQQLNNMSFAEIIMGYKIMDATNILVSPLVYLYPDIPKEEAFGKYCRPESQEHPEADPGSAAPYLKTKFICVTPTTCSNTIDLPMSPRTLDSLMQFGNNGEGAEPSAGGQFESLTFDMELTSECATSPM
Chain of STAT3 SH2 domain (P40763 580-670 limits assumed): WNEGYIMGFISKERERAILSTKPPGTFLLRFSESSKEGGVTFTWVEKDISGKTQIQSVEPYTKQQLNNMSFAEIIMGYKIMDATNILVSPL

Turning to `Cn1c(C(=O)N2CCN(Cc3cccc(C(F)(F)F)c3)CC2)cc2ccc(Oc3cnc(-c4nc(-c5ccc(C(F)(F)F)cc5)no4)cn3)cc21` [Example 29, (1-methyl-6-((5-(3-(4-(trifluoromethyl)phenyl)-1,2,4-oxadiazol-5-yl)pyrazin-2-yl)oxy)-1H-indol-2-yl)(4-(3-(trifluoromethyl)benzyl)piperazin-1-yl)methanone], the pKd in data set [1] was greater than 6.00. Further, the IC50 in data set [2], in data set [3], in data set [4] and in data set [5] was less than 1000 nM in each case.

Turning to `Cn1c(C(=O)N2CCN(Cc3ccc(C(F)(F)F)cc3)CC2)cc2ccc(Oc3cnc(-c4nc(-c5ccc(C(F)(F)F)cc5)no4)cn3)cc21` [Example 30, (1-methyl-6-((5-(3-(4-(trifluoromethyl)phenyl)-1,2,4-oxadiazol-5-yl)pyrazin-2-yl)oxy)-1H-indol-2-yl)(4-(4-(trifluoromethyl)benzyl)piperazin-1-yl)methanone], in data set [1], the pKd was greater than 6.00. For the same compound, the IC50 in data set [2], in data set [3], in data set [4] and in data set [5] was less than 1000 nM each time.

Regarding `COc1ccc(CN2CCN(C(=O)c3cc4ccc(Oc5cnc(-c6nc(-c7ccc(C(F)(F)F)cc7)no6)cn5)cc4n3C)CC2)cc1` [Example 31, (4-(4-methoxybenzyl)piperazin-1-yl)(1-methyl-6-((5-(3-(4-(trifluoromethyl)phenyl)-1,2,4-oxadiazol-5-yl)pyrazin-2-yl)oxy)-1H-indol-2-yl)methanone], in data set [1], the pKd was greater than 7.00. The IC50 in data set [2], in data set [3], in data set [4] and in data set [5] was less than 100 nM in each case.

In the case of `Cn1c(C(=O)N2CCN(Cc3cccc(OCC(F)(F)F)c3)CC2)cc2ccc(Oc3cnc(-c4nc(-c5ccc(C(F)(F)F)cc5)no4)cn3)cc21` [Example 32, (1-methyl-6-((5-(3-(4-(trifluoromethyl)phenyl)-1,2,4-oxadiazol-5-yl)pyrazin-2-yl)oxy)-1H-indol-2-yl)(4-(3-(2,2,2-trifluoroethoxy)benzyl)piperazin-1-yl)methanone], the pKd in data set [1] is greater than 7.00. Besides, the IC50 in data set [2], in data set [3], in data set [4] and in data set [5] was less than 100 nM throughout.

For the compound `Cn1c(C(=O)N2CCN(Cc3ccccc3OCC(F)(F)F)CC2)cc2ccc(Oc3cnc(-c4nc(-c5ccc(C(F)(F)F)cc5)no4)cn3)cc21` [Example 33, (1-methyl-6-((5-(3-(4-(trifluoromethyl)phenyl)-1,2,4-oxadiazol-5-yl)pyrazin-2-yl)oxy)-1H-indol-2-yl)(4-(2-(2,2,2-trifluoroethoxy)benzyl)piperazin-1-yl)methanone], the pKd in data set [1] was greater than 7.00. Further, the IC50 in data set [2], in data set [3], in data set [4] and in data set [5] was less than 1000 nM in each case.

`CN1CCN(C(=O)c2cc3ccc(Oc4cnc(-c5nc(-c6ccc(C(F)(F)F)cc6)no5)cn4)cc3n2C)CC1` [Example 34, (1-methyl-6-((5-(3-(4-(trifluoromethyl)phenyl)-1,2,4-oxadiazol-5-yl)pyrazin-2-yl)oxy)-1H-indol-2-yl)(4-methylpiperazin-1-yl)methanone]: in data set [1], the pKd was greater than 7.00. The IC50 in data set [2], in data set [3], in data set [4] and in data set [5] was less than 1000 nM each time.

On to `CCN1CCN(C(=O)c2cc3ccc(Oc4cnc(-c5nc(-c6ccc(C(F)(F)F)cc6)no5)cn4)cc3n2C)CC1` [Example 35, (4-ethylpiperazin-1-yl)(1-methyl-6-((5-(3-(4-(trifluoromethyl)phenyl)-1,2,4-oxadiazol-5-yl)pyrazin-2-yl)oxy)-1H-indol-2-yl)methanone], for which the pKd in data set [1] was greater than 7.00. The IC50 in data set [2], in data set [3], in data set [4] and in data set [5] was less than 1000 nM in each case.

As for `CCCN1CCN(C(=O)c2cc3ccc(Oc4cnc(-c5nc(-c6ccc(C(F)(F)F)cc6)no5)cn4)cc3n2C)CC1` [Example 36], in data set [1], the pKd was greater than 7.00. In addition, the IC50 in data set [2], in data set [3], in data set [4] and in data set [5] was less than 1000 nM throughout.

Take `COC(=O)CN1CCN(C(=O)c2cc3ccc(Oc4cnc(-c5nc(-c6ccc(C(F)(F)F)cc6)no5)cn4)cc3n2C)CC1` [Example 37, Methyl 2-(4-(1-methyl-6-((5-(3-(4-(trifluoromethyl)phenyl)-1,2,4-oxadiazol-5-yl)pyrazin-2-yl)oxy)-1H-indol-2-carbonyl)piperazin-1-yl)acetate]: the pKd in data set [1] is greater than 7.00. In addition, the IC50 in data set [2], in data set [3], in data set [4] and in data set [5] was less than 1000 nM in each case.

Consider `Cn1c(C(=O)N2CCN(C(=O)CCl)CC2)cc2ccc(Oc3cnc(-c4nc(-c5ccc(C(F)(F)F)cc5)no4)cn3)cc21` [Example 38, 2-chloro-1-(4-(1-methyl-6-((5-(3-(4-(trifluoromethyl)phenyl)-1,2,4-oxadiazol-5-yl)pyrazin-2-yl)oxy)-1H-indol-2-carbonyl)piperazin-1-yl)ethanone], for which the pKd in data set [1] is greater than 7.00. Further, the IC50 in data set [2], in data set [3], in data set [4] and in data set [5] was less than 1000 nM throughout.

Turning to `Cn1c(C(=O)N2CCN(C(=O)c3ccc(C(F)(F)F)cc3)CC2)cc2ccc(Oc3cnc(-c4nc(-c5ccc(C(F)(F)F)cc5)no4)cn3)cc21` [Example 39], in data set [1], the pKd was greater than 7.00. Also, the IC50 in data set [2], in data set [3], in data set [4] and in data set [5] was less than 1000 nM each time.

Consider `Cc1nc(-c2nc(-c3ccc(OC(F)(F)F)cc3)no2)nn1Cc1cccc(N2CCC(S(C)(=O)=O)CC2)c1` [IACS-010759, reference compound], for which, in data set [2] (Capan-2, FIG. 5B, read-out: IC50, inhibition of proliferation of pancreatic cancer cells), the pIC50 was 8.57. For the same compound, the pKd in data set [6] is 5.56. For the same compound, the “mortality in the mouse model” value in data set [7] (25 mg/kg) is listed as “all mice in the administered group died”; in data set [7] (listed as IACS-101759, 25 mg/kg) it was “all mice died”.

Values taken from patent publication US12448372B2, “Class of triaromatic compounds targeting bifunctional phosphorylation site of STAT3 and applications thereof” (SHANGHAI YUYAO BIOTECH LTD., priority 2019, dated 2025).
